Laboratory results as given in US5968526A, “T cell epitopes of the major allergens from Dermatophagoides (house dust mite)” (Immulogic Pharamaceutical Corporation, priority 1995, dated 1999).

What was measured:
Type in all cases: cell-based, human
[1] = system: PBMC from mite-allergic patient; assay: primary T cell (PBMC) proliferation, mite-allergic patient, tritiated thymidine; conditions: medium 1071 ± 30
Description: Peripheral blood mononuclear cells (PBMC) were purified by Ficoll-Hypaque centrifugation of a peripheral blood specimen from mite-allergic patient and were assayed for proliferation in response to various antigens, i.e., affinity-purified Der p I, affinity purified Der p II, various Der p I and Der p II peptides. For assay, 5×10^4 PBMC were cultured in triplicate microwells for 7 days at 37° C. in the presence of various concentrations of antigen in 200 μl RPMI-1640 containing 5% human AB serum. Each well then received 1 μCi tritiated thymidine for 16 hours. The counts incorporated were collected onto glass fiber filters and processed for liquid scintillation counting. […] The CPM +/- standard deviation are shown. The stimulation index of each response (S.I.) is the ratio of the ^3 H-thymidine CPM incorporated by the cells in response to antigen divided by the ^3 H-thymidine CPM incorporated by cells in medium only. […] Thus, these peptides contain Der p I or Der p II T cell epitopes recognized by T cells from this particular allergic patient.

[2] = system: T cell lines primed in vitro to Der p I; assay: secondary proliferation of Der p I-primed T cell lines (Examples V, VII, XI); conditions: overlapping Der p I peptides; 33 positive experiments
Description: 10^7 PBMC from individual 543 were cultured in 10 ml RPMI-1640 containing 5% pooled human AB serum and supplemented with glutamine, penicillin, streptomycin and HEPES buffer in the presence of 20 μg/ml purified native Der p I/ml at 37° C. for 7 days. Viable cells were then purified by Ficoll-Hypaque centrifugation and cultured for 2 additional weeks in RPMI-1640/5% AB serum containing 5 units recombinant human IL-2/ml and 5 units recombinant human IL-4/ml. The resting T cells were then tested in a secondary proliferation assay to assess T cell responses to various house dust mite proteins and peptides. For assay, 2×10^4 resting T cells were cultured in 200 μl of RPMI-1640/5% AB serum for 3 days at 37° C. in the presence of 2×10^4 autologous Epstein-Barr virus transformed B cells (20,000 Rads) as antigen presenting cells with various concentrations of purified native Der p I or synthetic Der p I peptides. Each well then received 1 μCi tritiated thymidine for 16 hours. The counts incorporated were collected onto glass fiber filters and processed for liquid scintillation counting. Medium alone, acting as negative control, contained no allergen or peptide. The results of this experiment indicate that this particular patient responds with an S.I. of at least 2.0 to several peptides derived from the Der p I protein, including DP I-1, DP I-2, DP I-4, DP I-11, DP I-5, DP I-13, DP I-15, DP I-6.1, DP I-8, DP I-9, DP I-16, DP I-10 and DP I-17 (data not shown).
The above procedure was followed with a number of other house dust mite allergic individuals except a) in individual cases, the length of time of cultivation with IL-2 and IL-4 varied; b) in individual cases, the T cells were primed with either purified native (N) or recombinant (R) Der p I protein at either 20 μg/ml or 10 μg/ml; and c) in individual cases, x-irradiated (3500 Rads) autologous PBMC were used as antigen presenting cells in the secondary proliferation assay.
Individual results were considered positive and used if the individual responded to the Der p I protein and at least one peptide derived from Der p I at an S.I. of 2.0 or greater. The resting T cell lines primed with recombinant or native Der p I-stimulated PBMC were tested for reactivity to synthetic Der p I peptides. The maximum response for each peptide in a titration of the antigen is expressed as the T cell stimulation index (S.I.). The S.I. is the counts-per-minute (CPM) incorporated by cells in response to the peptide divided by the CPM incorporated by cells in medium only. […] However, only individual S.I. values greater than or equal to 2.0 (a response two-fold or greater over background), referred to herein as "positive" results, were used in calculating mean T cell stimulation indices for each peptide for the patient or group of patients tested. […] The T cell stimulation index is calculated by: [formula]
The bar represents the cumulative rank of the peptide response in the group of patients. To determine the cumulative rank, the 5 peptides with the highest S.I. in each individual were determined and assigned a numerical rank in descending order, with 5 representing the strongest response. The ranks for each peptide were then summed in the group of patients to determine the cumulative rank for the peptide. […] Given the percent positive and the mean T cell stimulation index, the positivity index (P.I.) for each peptide can be calculated.
The Der p I and Der f I proteins are very homologous (81% identity). Thus, experiments, similar to those of Example V, were carried out to determine the T cell responses of Der p I primed T cell lines when challenged with various Der p I peptides and substantially matching […].
The results of T cell studies using selected peptides derived from the Der p I, the Der f I, the Der p II and the Der f II proteins are shown in FIGS. 13-18a-d. […]

[3] = system: T cell lines primed in vitro to Der f I; assay: secondary proliferation of Der f I-primed T cell lines (Examples VI, VII, XI); conditions: Der f I primed; 8 positive experiments; FIG. 8
Description: Experiments similar to those of Example V were performed to determine. the T cell-reactive areas of the Der f I protein. For example, PBMC from house dust mite-allergic patient 783 were isolated as described in Example V and were stimulated in vitro-- with recombinant purified Der f I at 20 μg/ml. The results of the proliferation assay with Der f I peptides using x-irradiated (3500 Rads) autologous PBMC as antigen presenting cells indicate that T cells from this patient respond to the peptides DF I-8.1, DF I-9, DF I-6, DF I-10, DF I-2.1, DF I-3, DF I-11, DF I-5, DF I-1, and DF I-17 (data not shown).
The above procedure was followed in a number of patients except in individual cases, T cell lines were primed with affinity purified Der f I at 20 μg/ml or at 10 μg/ml and x-irradiated (25,000 Rads) autologous Epstein-Barr virus transformed B cells were used as antigen presenting cells. […]
Similarly, the procedure described in Example VI was followed with T cell lines from 9 patients primed in vitro to the Der f I protein then analyzed for response to selected peptides derived from the protein. The data was analyzed as described in Example VI. […]

[4] = system: T cell lines primed in vitro to Der p II; assay: secondary proliferation of Der p II-primed T cell lines (Examples VIII, X, XI); conditions: for T cell reactivity: overlapping Der p II peptides, 26 positive experiments, FIG. 9; for T cell response: patient 348, native Der p II primed, data not shown
Description: Experiments similar to those of Example V were performed to determine the T cell-reactive areas of the Der p II protein. For example, PBMC from house dust mite-allergic patient 348 were isolated as described in Example V and were stimulated in vitro with 20 μg/ml purified native Der p II.
The above procedure was followed with a number of patients except in individual cases, T cell lines were primed with recombinant Der p II at 20 μg/ml or at 3 μg/ml and x-irradiated (3500 Rads) autologous PBMC were used as antigen-presenting cells. The data was analyzed as described in Example V, except the ranked sum of peptide responses was analyzed assigning a value of 3, 2 or 1 to the three highest S.I. responses.
A study similar to that described in Example VII was carried out to determine the T cell cross-reactivity of the Der p II and Der f II proteins. T cells primed with the Der f II protein were challenged with various Der f II peptides and a set of substantially matching Der p II peptides.
Another experiment following the procedure described in Example VIII analyzed the response of 29 patients primed in vitro to the Der p II protein and challenged with selected peptides derived from the Der p II sequence.

[5] = system: T cell lines primed in vitro with Der p II; assay: T cell proliferation with fine map and modified Group II peptides (Example XIV); conditions: FIGS. 32a-b
Description: Long term T cell lines were established by stimulation of 2×10^6 PBL/ml in bulk cultures of complete medium (RPMI-1640, 2 mM L-glutamine, 100 U/ml penicillin/streptomycin, 5×10^-5 M 2-mercaptoethanol, and 10 mM HEPES supplemented with 5% heat inactivated human AB serum) with 30 μg/ml of purified native Der p I or Der p II for 5-6 days at 37° C. in a humidified 5% CO2 incubator to select for house dust mite protein allergen reactive T cells. This amount of priming antigen was determined to be optimal for the activation of T cells from house dust mite allergic patients. Viable cells were purified by LSM centrifugation and cultured in complete medium supplemented with 5 units recombinant human IL-2/ml and 5 units recombinant human IL-4/ml for up to three weeks until the cells no longer responded to lymphokines and were considered "rested". The ability of the T cells to proliferate to selected peptides, purified Der p I or Der p II, or positive (PHA) controls or negative controls (medium only) was then assessed. For assay, 2×10^4 rested cells were restimulated in the presence of 2×10^4 autologous Epstein-Barr virus (EBV)-transformed B cells (prepared as described below) (gamma-irradiated with 25,000 RADS) or with 5×10^4 autologous PBMs (gamma-irradiated with 3500 RADS), with 2-50 μg/ml of purified native Der p I or Der p II in a volume of 200 μl complete medium in duplicate or triplicate wells in 96-well round bottom plates for 3 days. Each well then received 1 μCi tritiated thymidine for 16-20 hours. The counts incorporated were collected onto glass fiber filter mats and processed for liquid scintillation counting. […] The titrations were used to optimize the dose of peptides in T cell assays.
The maximum response in a titration of each peptide is expressed as the stimulation index (S.I.). The S.I. is the counts per minute (CPM) incorporated by cells in response to peptide, divided by the CPM incorporated by cells in medium only. […] The positive results were used in calculating mean stimulation indices for each peptide for the individual patient tested.
The above procedure was followed with 18 patients in the studies using peptides derived from Der p I and Der f I (FIGS. 31a-b), and 21 patients in the studies with Der p II peptides (FIGS. 32a-b). Individual patient results were used in calculating the mean S.I. for each peptide if the patient responded to the Der p I or Der p II protein at an S.I. of 2.0 or greater and the patient responded to at least one peptide derived from a house dust mite allergen at an S.I. f 2.0 or greater. A summary of positive experiments from the patients tested is shown in FIGS. 32a and 32b and FIGS. 33a and 33b. The bars represent the positivity index. […] In parenthesis above each bar are the mean stimulation indices for each peptide or protein for the group of patients tested.
Autologous EBV-transformed cell lines were γ-irradiated with 25,000 Rad and used as antigen presenting cells in secondary proliferation assays and secondary bulk stimulations. These EBV-transformed cell lines were made by incubating 5×10^6 PBL with 1 ml of B-59/8 Marmoset cell line (ATCC CRL1612, American Type Culture Collection, Rockville, Md.) conditioned medium in the presence of 1 μg/ml phorbol 12-myristate 13-acetate (PMA) at 37° C. for 60 minutes in 12×75 mm polypropylene round-bottom Falcon snap cap tubes (Becton Dickinson Labware, Lincoln Park, N.J.). These cells were then diluted to 1.25×10^6 cells/ml in RPMI-1640 as described above except supplemented with 10% heat-inactivated fetal bovine serum and cultured in 200 μl aliquots in flat bottom culture plates until visible colonies were detected. They were then transferred to larger wells until the cell lines were established.

Substance	CPM ± S.D. ([1]; 10 μg/ml)	CPM ± S.D. ([1]; 30 μg/ml)	CPM ± S.D. ([1]; 100 μg/ml)	T cell reactivity [4]	T cell response [4]	T cell response, Group II peptides [5]	further results
DP I-8: Der p I peptide (IKDLDAFRHYDGTRIIQRDNGYQPNY)	1439 ± 32 CPM	1045 ± 32 CPM	2272 ± 40 CPM	–	–	–	T cell reactivity [2]: significant regions of T cell reactivity; T cell response to Der p I peptides [3]: respond significantly
DP II-8: Der p II peptide (DIKYTWNVPKIAPKSENVVVTVKVMG)	–	–	–	significant T cell reactivity	responds well	–	–
DP II-9: Der p II peptide (VVTVKVMGDDGVLACAIATHAKIRD)	3970 ± 87 CPM	4464 ± 86 CPM	2237 ± 53 CPM	significant T cell reactivity	responds well	–	–
DP II-20.6: Der p II peptide (DQVDVKDSANHEIKKVLVPGSHGSEP)	–	–	–	–	–	–	ranked sum of peptide responses ([4]; 30 patients, FIG. 17b): highest ranked sum
DP II-20: Der p II peptide (DQVDVKDCANHEIKKVLVPGCHGSEP)	–	–	–	–	–	positive T cell studies	–
DPII-8: printed among the modified forms; SEQ ID NO 171 in b126, probably DP II-20.8 (DQVDVKDCANHEIKKVLVPGCHGSEPK)	–	–	–	–	–	positive T cell studies	–
